Data reported in US10344025B2, “GLS1 inhibitors for treating disease” (Board of Regents, The University of Texas System, priority 2014, dated 2019).

Key:
A549 cells = test: Proliferation Assay (A549 viability, Cell Titer Fluor, 72 hours); assay type: cell-based; conditions: Homo sapiens, A549, 72 h
Method in brief: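 Cell Titer Fluor fluorescence after 72 h compound treatment (0.5% DMSO, 37 °C, 5% CO2) of A549 cells plated 24 h earlier at 1000/well. Four-parameter logistic fitting gave IC50.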

[1] = molecular target: purified recombinant human GAC (GLS1) (Homo sapiens (Human), UniProt O94925); test: GLS1 Enzymatic Activity Assay (dual-coupled enzymatic assay, resorufin/Amplex UltraRed readout); assay type: biochemical;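 further: glutamate from GAC coupled via glutamate oxidase and peroxidase to resorufin, read as fluorescence (ex 530, em 590 nm) kinetically or at 20 min, four-parameter logistic IC50 fit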
Chain of purified recombinant human GAC (GLS1) (O94925 other isoform, or with tags, fused parts or gaps): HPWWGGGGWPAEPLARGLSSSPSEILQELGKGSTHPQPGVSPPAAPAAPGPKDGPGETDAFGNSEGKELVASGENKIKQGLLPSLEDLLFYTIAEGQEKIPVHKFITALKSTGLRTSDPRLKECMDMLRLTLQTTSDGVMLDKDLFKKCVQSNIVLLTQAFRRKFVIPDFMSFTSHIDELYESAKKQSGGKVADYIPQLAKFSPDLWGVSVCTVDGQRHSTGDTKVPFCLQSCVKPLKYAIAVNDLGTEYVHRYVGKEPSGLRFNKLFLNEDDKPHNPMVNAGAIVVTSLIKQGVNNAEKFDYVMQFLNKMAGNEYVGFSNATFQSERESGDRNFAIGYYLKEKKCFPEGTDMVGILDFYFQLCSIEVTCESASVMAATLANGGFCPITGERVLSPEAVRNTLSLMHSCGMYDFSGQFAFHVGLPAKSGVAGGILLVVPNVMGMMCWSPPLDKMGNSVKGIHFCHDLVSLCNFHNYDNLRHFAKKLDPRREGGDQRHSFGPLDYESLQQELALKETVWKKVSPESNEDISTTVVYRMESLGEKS

Row | EC50 (A549 cells) | IC50 [1] | SMILES
1 | 500 to 5000 nM | < 100 nM | O=C(Nc1nnc(CCC(F)Cn2cc(C(=O)NCc3cc(OC(F)(F)F)ccc3F)nn2)s1)c1cccnc1 (centres unmarked) [Example 577, N-(5-(3-fluoro-4-(4-((2-fluoro-5-(trifluoromethoxy)benzyl)carbamoyl)-1H-1,2,3-triazol-1-yl)butyl)-1,3,4-thiadiazol-2-yl)nicotinamide]
2 | 500 to 5000 nM | < 100 nM | CNC(=O)c1cn(CC(F)CCc2nnc(NC(=O)Cc3cccnc3)s2)nn1 (centres unmarked) [Example 578, 1-(2-fluoro-4-(5-(2-(pyridin-3-yl)acetamido)-1,3,4-thiadiazol-2-yl)butyl)-N-methyl-1H-1,2,3-triazole-4-carboxamide]
3 | < 100 nM | < 100 nM | O=C(Cc1cc(C2CC2)ccn1)Nc1nnc(CCC(F)Cn2cc(C(=O)NCc3cncc(C(F)(F)F)c3)nn2)s1 (centres unmarked) [Example 580, 1-(4-(5-(2-(4-cyclopropylpyridin-2-yl)acetamido)-1,3,4-thiadiazol-2-yl)-2-fluorobutyl)-N-((5-(trifluoromethyl)pyridin-3-yl)methyl)-1H-1,2,3-triazole-4-carboxamide]
4 | < 100 nM | < 100 nM | O=C(Cc1cc(OC(F)(F)F)ccc1F)Nc1ccc(CCCCn2cc(C(=O)NCc3ccccn3)nn2)nn1 [Example 585, 1-(4-(6-(2-(2-fluoro-5-(trifluoromethoxy)phenyl)acetamido)pyridazin-3-yl)butyl)-N-(pyridin-2-ylmethyl)-1H-1,2,3-triazole-4-carboxamide]
5 | < 100 nM | < 100 nM | O=C(Cc1cc(OC(F)(F)F)ccc1F)Nc1ccc(CCCCn2cc(C(=O)NCc3cccnc3)nn2)nn1 [Example 586, 1-(4-(6-(2-(2-fluoro-5-(trifluoromethoxy)phenyl)acetamido)pyridazin-3-yl)butyl)-N-(pyridin-3-ylmethyl)-1H-1,2,3-triazole-4-carboxamide]
6 | < 100 nM | < 100 nM | O=C(Cc1cc(OC(F)(F)F)ccc1F)Nc1ccc(CCCCn2cc(C(=O)NCc3ccncc3)nn2)nn1 [Example 587, 1-(4-(6-(2-(2-fluoro-5-(trifluoromethoxy)phenyl)acetamido)pyridazin-3-yl)butyl)-N-(pyridin-4-ylmethyl)-1H-1,2,3-triazole-4-carboxamide]
7 | < 100 nM | < 100 nM | O=C(Cc1ccccn1)Nc1ccc(CCCCn2cc(C(=O)NCc3cc(OC(F)(F)F)ccc3F)nn2)nn1 [Example 588, N-(2-fluoro-5-(trifluoromethoxy)benzyl)-1-(4-(6-(2-(pyridin-2-yl)acetamido)pyridazin-3-yl)butyl)-1H-1,2,3-triazole-4-carboxamide]
8 | < 100 nM | < 100 nM | O=C(Cc1cccnc1)Nc1ccc(CCCCn2cc(C(=O)NCc3cc(OC(F)(F)F)ccc3F)nn2)nn1 [Example 589, N-(2-fluoro-5-(trifluoromethoxy)benzyl)-1-(4-(6-(2-(pyridin-3-yl)acetamido)pyridazin-3-yl)butyl)-1H-1,2,3-triazole-4-carboxamide]
9 | < 100 nM | < 100 nM | O=C(Cc1ccncc1)Nc1ccc(CCCCn2cc(C(=O)NCc3cc(OC(F)(F)F)ccc3F)nn2)nn1 [Example 590, N-(2-fluoro-5-(trifluoromethoxy)benzyl)-1-(4-(6-(2-(pyridin-4-yl)acetamido)pyridazin-3-yl)butyl)-1H-1,2,3-triazole-4-carboxamide]
10 | 100 to 500 nM | < 100 nM | O=C(NCc1cc(OC(F)(F)F)ccc1F)c1cn(CCCCc2ccc(NC(=O)C3CC3)nn2)nn1 [Example 591]
11 | < 100 nM | < 100 nM | O=C(Cc1cccc(F)n1)Nc1nnc(CCC(F)Cn2cc(C(=O)NCc3cc(OC(F)(F)F)ccc3F)nn2)s1 (centres unmarked) [Example 592, 1-(2-fluoro-4-(5-(2-(6-fluoropyridin-2-yl)acetamido)-1,3,4-thiadiazol-2-yl)butyl)-N-(2-fluoro-5-(trifluoromethoxy)benzyl)-1H-1,2,3-triazole-4-carboxamide]
12 | < 100 nM | < 100 nM | O=C(Cc1cncs1)Nc1nnc(CCC(F)Cn2cc(C(=O)NCc3cc(OC(F)(F)F)ccc3F)nn2)s1 (centres unmarked) [Example 593, 1-(2-fluoro-4-(5-(2-(thiazol-5-yl)acetamido)-1,3,4-thiadiazol-2-yl)butyl)-N-(2-fluoro-5-(trifluoromethoxy)benzyl)-1H-1,2,3-triazole-4-carboxamide]
13 | 500 to 5000 nM | < 100 nM | O=C(Nc1nnc(CCC(F)Cn2cc(C(=O)NCc3cc(OC(F)(F)F)ccc3F)nn2)s1)c1ccncc1 (centres unmarked) [Example 594, N-(5-(3-fluoro-4-(4-((2-fluoro-5-(trifluoromethoxy)benzyl)carbamoyl)-1H-1,2,3-triazol-1-yl)butyl)-1,3,4-thiadiazol-2-yl)isonicotinamide]
14 | < 100 nM | < 100 nM | O=C(NCc1cc(OC(F)(F)F)ccc1F)c1cn(CC(F)CCc2nnc(NC(=O)c3ccccn3)s2)nn1 (centres unmarked) [Example 595, N-(5-(3-fluoro-4-(4-((2-fluoro-5-(trifluoromethoxy)benzyl)carbamoyl)-1H-1,2,3-triazol-1-yl)butyl)-1,3,4-thiadiazol-2-yl)picolinamide]

Continued, molecule first:

Row | SMILES | EC50 (A549 cells) | IC50 [1]
15 | CNC(=O)c1cn(CCCCc2ccc(NC(=O)Cc3cnccn3)nn2)nn1 [Example 579, N-methyl-1-(4-(6-(2-(pyrazin-2-yl)acetamido)pyridazin-3-yl)butyl)-1H-1,2,3-triazole-4-carboxamide] | 500 to 5000 nM | 100 to 500 nM
16 | O=C(Cc1cc(OC(F)(F)F)ccc1F)Nc1ccc(CCCCn2cc(C(=O)NC3COC3)nn2)nn1 [Example 581, 1-(4-(6-(2-(2-fluoro-5-(trifluoromethoxy)phenyl)acetamido)pyridazin-3-yl)butyl)-N-(oxetan-3-yl)-1H-1,2,3-triazole-4-carboxamide] | 100 to 500 nM | < 100 nM
17 | O=C(Cc1cc(OC(F)(F)F)ccc1F)Nc1ccc(CCCCn2cc(C(=O)NCC3CCO3)nn2)nn1 (centres unmarked) [Example 582, 1-(4-(6-(2-(2-fluoro-5-(trifluoromethoxy)phenyl)acetamido)pyridazin-3-yl)butyl)-N-(oxetan-2-ylmethyl)-1H-1,2,3-triazole-4-carboxamide] | 100 to 500 nM | < 100 nM
18 | O=C(Cc1cc(OC(F)(F)F)ccc1F)Nc1ccc(CCCCn2cc(C(=O)NC3CC3)nn2)nn1 [Example 583, N-cyclopropyl-1-(4-(6-(2-(2-fluoro-5-(trifluoromethoxy)phenyl)acetamido)pyridazin-3-yl)butyl)-1H-1,2,3-triazole-4-carboxamide] | < 100 nM | < 100 nM
19 | COCCNC(=O)c1cn(CCCCc2ccc(NC(=O)Cc3cc(OC(F)(F)F)ccc3F)nn2)nn1 [Example 584, 1-(4-(6-(2-(2-fluoro-5-(trifluoromethoxy)phenyl)acetamido)pyridazin-3-yl)butyl)-N-(2-methoxyethyl)-1H-1,2,3-triazole-4-carboxamide] | 100 to 500 nM | < 100 nM
20 | NC(=O)c1cn(CCCCc2ccc(NC(=O)Cc3cccc(OC(F)(F)F)c3)nn2)nn1 [Example 596, 1-(4-(6-(2-(3-(trifluoromethoxy)phenyl)acetamido)pyridazin-3-yl)butyl)-1H-1,2,3-triazole-4-carboxamide] | 100 to 500 nM | < 100 nM
21 | O=C(Cc1cc(OC(F)(F)F)ccc1F)Nc1ccc(CCCCc2nnc(C(=O)NCCO)s2)nn1 [Example 597, 5-(4-(6-(2-(2-fluoro-5-(trifluoromethoxy)phenyl)acetamido)pyridazin-3-yl)butyl)-N-(2-hydroxyethyl)-1,3,4-thiadiazole-2-carboxamide] | 100 to 500 nM | < 100 nM
22 | CNC(=O)c1nnc(CCCCc2ccc(NC(=O)Cc3cc(OC(F)(F)F)ccc3F)nn2)s1 [Example 598, 5-(4-(6-(2-(2-fluoro-5-(trifluoromethoxy)phenyl)acetamido)pyridazin-3-yl)butyl)-N-methyl-1,3,4-thiadiazole-2-carboxamide] | < 100 nM | < 100 nM
23 | CC(=O)Nc1ccc(CCCCc2nnc(C(=O)NCc3cccc(OC(F)(F)F)c3)s2)nn1 [Example 599, 5-(4-(6-acetamidopyridazin-3-yl)butyl)-N-(3-(trifluoromethoxy)benzyl)-1,3,4-thiadiazole-2-carboxamide] | < 100 nM | < 100 nM
24 | CC(=O)Nc1ccc(CCCCc2nnc(C(=O)NCc3cc(OC(F)(F)F)ccc3F)s2)nn1 [Example 600, 5-(4-(6-acetamidopyridazin-3-yl)butyl)-N-(2-fluoro-5-(trifluoromethoxy)benzyl)-1,3,4-thiadiazole-2-carboxamide] | < 100 nM | < 100 nM
25 | CC(=O)Nc1ccc(CCCCc2nnc(C(=O)NCc3cc(C(F)(F)F)ccn3)s2)nn1 [Example 601, 5-(4-(6-acetamidopyridazin-3-yl)butyl)-N-((4-(trifluoromethyl)pyridin-2-yl)methyl)-1,3,4-thiadiazole-2-carboxamide] | < 100 nM | < 100 nM
26 | CC(=O)Nc1ccc(CCCCc2nnc(C(=O)NCc3cncc(C(F)(F)F)c3)s2)nn1 [Example 602, 5-(4-(6-acetamidopyridazin-3-yl)butyl)-N-((5-(trifluoromethyl)pyridin-3-yl)methyl)-1,3,4-thiadiazole-2-carboxamide] | < 100 nM | < 100 nM
27 | CNC(=O)c1nnc(CCCCn2cc(C(=O)NCc3cc(C(F)(F)F)ccn3)nn2)s1 [Example 603, N-methyl-5-(4-(4-(((4-(trifluoromethyl)pyridin-2-yl)methyl)carbamoyl)-1H-1,2,3-triazol-1-yl)butyl)-1,3,4-thiadiazole-2-carboxamide] | > 5000 nM | 500 to 5000 nM
28 | CNC(=O)c1cn(CCCCc2ccc(NC(=O)Cc3cn(-c4cccc(OC(F)(F)F)c4)cn3)nn2)nn1 [Example 604, N-methyl-1-(4-(6-(2-(1-(3-(trifluoromethoxy)phenyl)-1H-imidazol-4-yl)acetamido)pyridazin-3-yl)butyl)-1H-1,2,3-triazole-4-carboxamide] | < 100 nM | < 100 nM
